Assay results published in patent US7855212B2, “Pyridinyl acetonitriles” (Merck Serono SA, priority 2003, dated 2010).

Legend:
[1] = biological target: human GSK3 beta (Homo sapiens, UniProt P49841); assay: GSK3β in vitro assay (33P phosphorylation of phospho GS2 peptide); type: biochemical; conditions: in vitro potency on human GSK3 beta; read-out: IC50 (μM) GSK3beta
Procedure: GSK3β Assay (see Bioorg. Med. Chem. Lett by Naerum et al. 12 p. 1525-1528 (2002))
In a final reaction volume of 25 μl, GSK3β (h) (5-10 mU) is incubated with 8 mM MOPS pH 7.0, 0.2 mM EDTA, 20 μM […](p)EDEEE (being the GSK3 substrate; a phospho GS2 peptide), 10 mM Mg Acetate and [γ-^33P-ATP] (Specific activity approx. 500 cpm/pmol, concentration as required). The reaction is initiated by the addition of Mg^2+ [γ-^33P-ATP]. After incubation for 40 minutes at room temperature, the reaction is stopped by the addition of 5 μl of a 3% phosphoric acid solution. 10 μl of the reaction is then spotted onto a P30 filtermat and washed three times for 5 minutes in 50 mM phosphoric acid and once in methanol prior to drying and the degree of phosphorylation of the substrate is determined by scintillation counting.

[2] = biological target: rat JNK3 (Rattus norvegicus, UniProt P49187); assay: JNK3 in vitro assay (33P incorporation into c-Jun, SPA); type: biochemical; conditions: in vitro potency on rat JNK3; read-out: JUNK3 IC50
Procedure: The compounds of the present invention are inhibitors of JNKs. The phosphorylation of c-jun by JNK2 or JNK3 may be determined by monitoring the incorporation of ^33P into c-jun following the protocol below. The inhibitory activity of the compounds according to formula I, towards c-jun phosphorylation through JNK, is determined by calculating phosphorylation activity in the presence or absence of compounds according to formula I.
JNK3 and/or -2 assays are performed in 96 well MIT plates: incubation of 0.5 μg of recombinant, pre-activated GST-JNK3 or GST-JNK2 with 1 μg of recombinant, biotinylated GST-c-Jun and 2 μM ^33γ-ATP (2 nCi/μl), in the presence or absence of compounds according to formula I and in a reaction volume of 50 μl containing 50 mM Tris-HCl, pH 8.0; 10 mM MgCl2; 1 mM Dithiothreitol, and 100 μM NaVO4. The incubation is performed for 120 min. at R.T and stopped upon addition of 200 μl of a solution containing 250 μg of Streptavidine-coated SPA beads (Amersham, Inc.)*, 5 mM EDTA, 0.1% Triton X-100 and 50 μM ATP, in phosphate saline buffer.
After incubation for 60 minutes at RT, beads are sedimented by centrifugation at 1500×g for 5 minutes, resuspended in 200 μl of PBS containing 5 mM EDTA, 0.1% Triton X-100 and 50 μM ATP and the radioactivity measured in a scintillation β counter, following sedimentation of the beads as described above.

Sequence of rat JNK3 (P49187 whole entry): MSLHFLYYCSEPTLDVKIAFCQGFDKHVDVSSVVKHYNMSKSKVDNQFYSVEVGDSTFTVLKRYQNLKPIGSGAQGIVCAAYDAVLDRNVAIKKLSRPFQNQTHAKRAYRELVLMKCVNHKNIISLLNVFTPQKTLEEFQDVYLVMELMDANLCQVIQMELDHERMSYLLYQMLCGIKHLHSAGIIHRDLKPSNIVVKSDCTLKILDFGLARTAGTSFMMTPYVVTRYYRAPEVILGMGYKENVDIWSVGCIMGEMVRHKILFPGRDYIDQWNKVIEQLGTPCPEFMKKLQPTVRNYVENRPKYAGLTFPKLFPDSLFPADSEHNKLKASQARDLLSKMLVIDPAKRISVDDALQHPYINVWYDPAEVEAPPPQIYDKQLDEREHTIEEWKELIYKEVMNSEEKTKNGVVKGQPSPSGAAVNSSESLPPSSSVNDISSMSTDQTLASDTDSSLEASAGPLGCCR
Sequence of human GSK3 beta (P49841 whole entry): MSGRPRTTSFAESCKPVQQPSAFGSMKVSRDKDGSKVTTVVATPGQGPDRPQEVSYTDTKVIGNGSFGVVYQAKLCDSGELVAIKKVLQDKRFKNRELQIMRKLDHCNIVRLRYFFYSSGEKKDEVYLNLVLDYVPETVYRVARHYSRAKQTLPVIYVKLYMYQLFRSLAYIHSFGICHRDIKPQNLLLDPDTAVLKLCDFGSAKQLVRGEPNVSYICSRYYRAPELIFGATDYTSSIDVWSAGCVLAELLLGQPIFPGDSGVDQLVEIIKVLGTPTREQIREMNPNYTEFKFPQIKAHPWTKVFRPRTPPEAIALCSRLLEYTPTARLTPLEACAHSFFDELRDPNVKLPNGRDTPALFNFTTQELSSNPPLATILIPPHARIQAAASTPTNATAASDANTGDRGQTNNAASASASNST

IC50 [1]	IC50 [2]	SMILES
0.5 µM		Cc1cnc(NCCc2cccnc2)nc1/C(C#N)=C1/C=CC=CN1 [Example 3, 4-pyrimidineacetonitrile, 5-methyl-2-[[2-(3-pyridinyl)ethyl]amino]-alpha-2(1H)-pyridinylidene-]
	480 nM	Cc1cnc(NCCc2ccc(N(C)C)nc2)nc1/C(C#N)=C1/C=CC=CN1 [Example 4, 4-pyrimidineacetonitrile, 2-[[2-[6-(dimethylamino)-3-pyridinyl]ethyl]amino]-5-methyl-alpha-2(1H)-pyridinylidene-]
	70 nM	Cc1cnc(NC2CCCCC2)nc1/C(C#N)=C1/C=CC=CN1 [Example 8, 4-pyrimidineacetonitrile, 2-(cyclohexylamino)-5-methyl-alpha-2-pyridinyl-]
	486 nM	Cc1cnc(NCC2CCCCC2)nc1/C(C#N)=C1/C=CC=CN1 [Example 9, 4-pyrimidineacetonitrile, 2-[(cyclohexylmethyl)amino]-5-methyl-alpha-2 pyridinyl-]
	106 nM	Cc1cnc(NC2CCC2)nc1/C(C#N)=C1/C=CC=CN1 [Example 11, 4-pyrimidineacetonitrile, 2-(cyclobutylamino)-5-methyl-alpha-2(1H)-pyridinylidene]
	1140 nM	Cc1cnc(NC2CCN(C(=O)OC(C)(C)C)CC2)nc1/C(C#N)=C1/C=CC=CN1 [Example 12, 1-piperidinecarboxylic acid, 4-[[4-[(E)-cyano-2(1H)-pyridinylidenemethyl]-5-methyl-2-pyrimidinyl]amino]-, 1,1-dimethylethyl ester]
	6200 nM	CCN1C=CC=C/C1=C(\C#N)c1nc(NC2CCCC2)ncc1C [Example 14, 4-pyrimidineacetonitrile, 2-(cyclopentylamino)-alpha-(1-ethyl-2(1H)-pyridinylidene)-5-methyl]
0.2 µM	299 nM	Cc1cnc(NC2CC2)nc1/C(C#N)=C1/C=CC=CN1 [Example 15, 4-pyrimidineacetonitrile, 2-(cyclopropylamino)-5-methyl-alpha-2-pyridinyl-]
	665 nM	Cc1cnc(NC2CCN(Cc3ccccc3)CC2)nc1/C(C#N)=C1/C=CC=CN1 [Example 16, 4-pyrimidineacetonitrile, 5-methyl-2-[[1-(phenylmethyl)-4-piperidinyl]amino]-alpha-2(1H)-pyridinylidene-]
	210 nM	Cc1cnc(NCC(C)C)nc1/C(C#N)=C1/C=CC=CN1 [Example 20, 4-pyrimidineacetonitrile, 5-methyl-2-[(2-methylpropyl)amino]-alpha-2(1H)-pyridinylidene-]
	310 nM	Cc1cnc(NC(C)C)nc1/C(C#N)=C1/C=CC=CN1 [Example 21, 4-pyrimidineacetonitrile, 5-methyl-2-[(1-methylethyl)amino]-alpha-2(1H)-pyridinylidene-]
	740 nM	Cc1cnc(N[C@H]2CCCC[C@@H]2O)nc1/C(C#N)=C1/C=CC=CN1 [Example 22, 4-pyrimidineacetonitrile, 2-[[(1S,2S)-2-hydroxycyclohexyl]amino]-5-methyl-alpha-2(1H)-pyridinylidene-]
0.17 µM		CCCC(C)Nc1ncc(C)c(/C(C#N)=C2/C=CC=CN2)n1 (stereo not drawn) [Example 25, 4-pyrimidineacetonitrile, 5-methyl-2-[(1-methylbutyl)amino]-alpha-2-pyridinyl-]
1.5 µM		N#CC(=C1C=CNC=C1)c1ccnc(NCCc2cccnc2)n1 [Example 34, 4-pyrimidineacetonitrile, alpha-4-pyridinyl-2-[[2-(3-pyridinyl)ethyl]amino]-]
7.7 µM		CNc1nc(NCCc2cccnc2)nc(/C(C#N)=C2/C=CC=CN2)n1 [Example 49, 1,3,5-triazine-2-acetonitrile, 4-(methylamino)-alpha-2-pyridinyl-6-[[2-(3-pyridinyl)ethyl]amino]-]
	2350 nM	Cc1cnc(Cl)nc1/C(C#N)=C1/C=CC=CN1 [Intermediate 5, 4-pyrimidineacetonitrile, 2-chloro-5-methyl-alpha-2(1H)-pyridinylidene-]
